The numbers were not newly measured in publication PMC8146568, “Thermococcus bergensis sp. nov., a Novel Hyperthermophilic Starch-Degrading Archaeon” (Biology, 2021), which cites them from elsewhere.

Like-named read-outs stand apart in the source and are kept apart here.

The subject of the data set is T1, glyceraldehyde-3-phosphate ferredoxin oxidoreductase (GAPOR).
T1 construct: gene gor; native, purified from starch-grown culture of "strain 7324" (DSM 8774 mixed culture, formerly attributed to Archaeoglobus fulgidus); 66 kDa monomer; N-terminus MRFSVLKINLNEKKVX(X)EVFEREXV
The data set is described as follows: benzyl viologen-dependent GAP oxidation, steady-state kinetics. It counts as biochemical, Thermococcus bergensis. The note with it: pH 7.8, 50 °C, read-out: apparent Km.

`c1ccc(C[n+]2ccc(-c3cc[n+](Cc4ccccc4)cc3)cc2)cc1` [BV, benzyl viologen]: under “artificial electron acceptor, GAP as co-substrate”, the Km is 4000 µM.

Take `O=C[C@H](O)COP(=O)(O)O` [GAP, glyceraldehyde-3-phosphate]: the Michaelis-Menten constant (Km) (benzyl viologen as electron acceptor) was 5 µM.
